# Reference: ChEMBL document CHEMBL1201862, “PubChem BioAssay data set” (2004)
# The source made the active and inactive calls.
# Legend:
# [1] = Luminescence Cell-Based Dose Confirmation HTS to Identify Inhibitors of Platelet Dense Granule Release. [Related pubchem assays: 1663 (Primary HTS), 1678 (Summary of Project)]; type: functional
# [2] = target: Luciferin 4-monooxygenase (Photinus pyralis, UniProt P08659); test: inhibition of purified Photinus pyralis luciferase – biochemical, luminescence, dose response (AID 1891)
# Chain of Luciferin 4-monooxygenase (P08659 whole entry): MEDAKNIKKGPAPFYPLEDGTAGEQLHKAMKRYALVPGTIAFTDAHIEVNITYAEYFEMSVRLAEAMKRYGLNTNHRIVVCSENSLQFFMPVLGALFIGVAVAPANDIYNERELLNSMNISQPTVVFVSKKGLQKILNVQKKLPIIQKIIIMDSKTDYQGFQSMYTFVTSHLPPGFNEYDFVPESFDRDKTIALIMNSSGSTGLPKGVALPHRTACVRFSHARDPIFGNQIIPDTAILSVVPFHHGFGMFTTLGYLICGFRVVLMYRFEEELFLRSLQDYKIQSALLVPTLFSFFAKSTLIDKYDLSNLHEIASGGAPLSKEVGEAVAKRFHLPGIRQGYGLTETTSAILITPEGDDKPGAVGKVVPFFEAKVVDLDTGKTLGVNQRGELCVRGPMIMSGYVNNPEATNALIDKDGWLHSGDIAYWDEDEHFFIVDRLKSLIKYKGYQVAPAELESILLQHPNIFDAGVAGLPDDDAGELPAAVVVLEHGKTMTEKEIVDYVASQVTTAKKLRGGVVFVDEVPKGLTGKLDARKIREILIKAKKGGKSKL
# Beta-galactosidase = Beta-galactosidase (Escherichia coli, UniProt Q8VNN2); test: Dose response counterscreen for EBI2 assay utilizing the enzyme, b-galactosidase.; type: functional
# Chain of Beta-galactosidase (Q8VNN2 whole entry): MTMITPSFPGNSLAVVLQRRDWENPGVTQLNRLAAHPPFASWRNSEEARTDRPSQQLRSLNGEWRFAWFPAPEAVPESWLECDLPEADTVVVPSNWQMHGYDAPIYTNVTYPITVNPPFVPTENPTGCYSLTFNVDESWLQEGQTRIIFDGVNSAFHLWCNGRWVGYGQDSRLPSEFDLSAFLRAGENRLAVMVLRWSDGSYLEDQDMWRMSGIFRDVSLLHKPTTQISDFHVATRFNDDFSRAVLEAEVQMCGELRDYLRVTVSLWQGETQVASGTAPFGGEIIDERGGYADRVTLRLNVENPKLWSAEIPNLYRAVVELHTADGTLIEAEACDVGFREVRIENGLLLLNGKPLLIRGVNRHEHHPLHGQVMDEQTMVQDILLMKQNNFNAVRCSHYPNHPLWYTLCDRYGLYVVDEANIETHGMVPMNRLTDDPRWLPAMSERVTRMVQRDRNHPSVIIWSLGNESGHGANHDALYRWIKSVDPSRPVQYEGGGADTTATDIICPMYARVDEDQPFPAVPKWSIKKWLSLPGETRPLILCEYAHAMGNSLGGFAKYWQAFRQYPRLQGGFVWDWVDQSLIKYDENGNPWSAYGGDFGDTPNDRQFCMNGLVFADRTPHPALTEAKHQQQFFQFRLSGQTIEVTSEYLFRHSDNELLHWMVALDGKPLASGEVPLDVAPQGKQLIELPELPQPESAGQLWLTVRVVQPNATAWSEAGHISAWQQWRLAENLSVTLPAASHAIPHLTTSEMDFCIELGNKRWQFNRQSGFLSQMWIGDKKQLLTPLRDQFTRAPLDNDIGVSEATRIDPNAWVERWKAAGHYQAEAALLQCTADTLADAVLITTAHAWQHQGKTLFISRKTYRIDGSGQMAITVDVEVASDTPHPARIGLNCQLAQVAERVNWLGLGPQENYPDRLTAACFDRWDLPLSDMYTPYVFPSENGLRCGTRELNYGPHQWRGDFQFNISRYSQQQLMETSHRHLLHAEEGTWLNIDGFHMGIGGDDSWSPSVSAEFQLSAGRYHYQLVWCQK
# Bcl-2-related protein A1 [3] = target: T1, Bcl-2-related protein A1 (Mus musculus, UniProt Q07440); test: Bfl-1 binding inhibitors, SAR follow-up, biochemical, fluorescence polarization (AID 1070)
# T1 sequence (Q07440 whole entry): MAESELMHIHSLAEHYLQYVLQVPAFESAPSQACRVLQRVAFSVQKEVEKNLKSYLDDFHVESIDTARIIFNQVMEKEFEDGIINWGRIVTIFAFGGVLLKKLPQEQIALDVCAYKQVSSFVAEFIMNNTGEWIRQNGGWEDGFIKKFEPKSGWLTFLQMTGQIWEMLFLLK
# Bcl-2-related protein A1 [4] = target: T1, Bcl-2-related protein A1; test: small-molecule antagonists of Bfl-1/BH3 interaction – biochemical, TR-FRET, mouse Bfl-1, confirmation (AID 621);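 note: TR-FRET binding of GST-Bfl-1 to FITC-labelled Bid peptide via terbium antibody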
# [5] = target: Glyceraldehyde-3-phosphate dehydrogenase (Homo sapiens, UniProt P04406)
# Chain of Glyceraldehyde-3-phosphate dehydrogenase (P04406 whole entry): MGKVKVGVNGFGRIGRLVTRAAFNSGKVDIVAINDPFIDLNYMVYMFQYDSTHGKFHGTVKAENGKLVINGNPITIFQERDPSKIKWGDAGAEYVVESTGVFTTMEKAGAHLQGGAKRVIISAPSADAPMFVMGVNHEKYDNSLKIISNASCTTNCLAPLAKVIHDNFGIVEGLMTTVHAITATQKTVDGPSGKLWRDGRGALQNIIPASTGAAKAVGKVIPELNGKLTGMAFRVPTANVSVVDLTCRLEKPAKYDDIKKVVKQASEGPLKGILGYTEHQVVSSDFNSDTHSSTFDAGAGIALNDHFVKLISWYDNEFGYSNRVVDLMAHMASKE
# Cytochrome P450 3A4 = Cytochrome P450 3A4 (Homo sapiens, UniProt P08684);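 note: CYP3A4 tested as one member of a cytochrome P450 panel screen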
# Chain of Cytochrome P450 3A4 (P08684 whole entry): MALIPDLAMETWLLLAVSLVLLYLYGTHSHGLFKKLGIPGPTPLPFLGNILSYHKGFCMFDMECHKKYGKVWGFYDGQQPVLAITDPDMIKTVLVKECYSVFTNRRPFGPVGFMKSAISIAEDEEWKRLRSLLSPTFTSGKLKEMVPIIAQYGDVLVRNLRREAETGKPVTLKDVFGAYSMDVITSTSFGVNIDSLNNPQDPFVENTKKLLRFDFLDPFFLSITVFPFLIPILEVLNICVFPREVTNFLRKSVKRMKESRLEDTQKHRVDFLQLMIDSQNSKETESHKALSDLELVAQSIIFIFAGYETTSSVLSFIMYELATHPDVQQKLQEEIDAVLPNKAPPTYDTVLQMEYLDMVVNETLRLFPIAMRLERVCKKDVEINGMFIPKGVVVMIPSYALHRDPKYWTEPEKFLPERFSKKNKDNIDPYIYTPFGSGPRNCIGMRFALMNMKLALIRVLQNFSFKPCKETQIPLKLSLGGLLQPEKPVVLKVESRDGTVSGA
# Cytochrome P450 1A2 = target: T2, Cytochrome P450 1A2 (Homo sapiens, UniProt P05177);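 note: PubChem cytochrome P450 panel assay, CYP1A2 panel member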
# T2 sequence (P05177 whole entry): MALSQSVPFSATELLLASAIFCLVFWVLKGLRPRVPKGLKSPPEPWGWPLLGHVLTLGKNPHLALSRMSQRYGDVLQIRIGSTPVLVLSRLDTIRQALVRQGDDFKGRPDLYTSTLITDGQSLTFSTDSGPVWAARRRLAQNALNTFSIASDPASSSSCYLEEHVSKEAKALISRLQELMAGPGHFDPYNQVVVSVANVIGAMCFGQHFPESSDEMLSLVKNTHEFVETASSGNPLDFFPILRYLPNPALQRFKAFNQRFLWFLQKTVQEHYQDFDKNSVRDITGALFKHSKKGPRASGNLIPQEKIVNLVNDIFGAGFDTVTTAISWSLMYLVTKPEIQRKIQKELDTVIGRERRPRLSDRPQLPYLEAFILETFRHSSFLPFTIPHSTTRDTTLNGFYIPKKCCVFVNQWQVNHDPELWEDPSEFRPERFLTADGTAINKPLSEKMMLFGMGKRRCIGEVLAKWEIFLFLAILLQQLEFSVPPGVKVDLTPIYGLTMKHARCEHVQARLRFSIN
# Prothrombin = Prothrombin (Homo sapiens, UniProt P00734); test: Thrombin 1536 HTS Dose Response Confirmation. [Related pubchem assays: 1046 (Thrombin 1536 HTS; hits were confirmed in this assay)]; type: functional
# [6] = viability loss in Vero cells – cytotoxicity control for Vif-APOBEC3G degradation inhibitor project, dose response (AID 1117358); type: functional; settings: Vero
# [7] = target: T3, Mannose-6-phosphate isomerase (Homo sapiens, UniProt P34949); test: MPI inhibition at elevated mannose 6-phosphate – biochemical, fluorescence intensity, high mannose 6-phosphate, primary screen (AID 1220)
# T3 sequence (P34949 whole entry): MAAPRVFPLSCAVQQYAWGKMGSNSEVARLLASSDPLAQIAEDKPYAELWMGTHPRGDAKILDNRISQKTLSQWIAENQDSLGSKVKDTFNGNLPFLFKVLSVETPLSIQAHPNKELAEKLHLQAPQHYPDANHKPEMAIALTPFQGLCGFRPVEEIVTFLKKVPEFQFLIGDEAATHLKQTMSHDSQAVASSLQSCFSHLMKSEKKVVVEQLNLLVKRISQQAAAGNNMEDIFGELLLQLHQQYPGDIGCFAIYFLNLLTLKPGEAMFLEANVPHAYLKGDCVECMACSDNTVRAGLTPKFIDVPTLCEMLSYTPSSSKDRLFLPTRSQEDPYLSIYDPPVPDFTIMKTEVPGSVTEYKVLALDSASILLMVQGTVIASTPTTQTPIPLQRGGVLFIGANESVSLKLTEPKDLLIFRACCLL
# Cytochrome P450 2C9 = Cytochrome P450 2C9 (Homo sapiens, UniProt P11712)
# Chain of Cytochrome P450 2C9 (P11712 whole entry): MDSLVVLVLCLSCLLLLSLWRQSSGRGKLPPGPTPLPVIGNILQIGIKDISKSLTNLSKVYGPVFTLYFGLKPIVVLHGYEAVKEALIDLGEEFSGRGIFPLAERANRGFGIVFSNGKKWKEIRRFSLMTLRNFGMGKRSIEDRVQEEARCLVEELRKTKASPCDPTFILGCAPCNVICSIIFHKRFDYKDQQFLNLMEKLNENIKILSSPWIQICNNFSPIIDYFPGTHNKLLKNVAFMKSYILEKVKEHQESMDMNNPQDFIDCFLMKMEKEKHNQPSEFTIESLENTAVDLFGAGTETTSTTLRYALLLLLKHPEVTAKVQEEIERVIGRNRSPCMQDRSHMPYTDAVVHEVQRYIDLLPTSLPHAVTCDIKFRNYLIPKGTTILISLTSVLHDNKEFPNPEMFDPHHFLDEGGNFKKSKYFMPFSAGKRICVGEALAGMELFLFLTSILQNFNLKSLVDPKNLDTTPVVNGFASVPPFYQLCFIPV
# BJ [8] = test: cells; type: functional, cell-based; settings: Homo sapiens
# Paired box protein Pax-8 = Paired box protein Pax-8 (Homo sapiens, UniProt Q06710); test: PAX8 transcriptional activity inhibition in RMG-I – RMG-I cells, luciferase, cherry-pick, dose response (AID 687027); type: functional, cell-based;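 note: luciferase reporter driven by Pax8 target thyroperoxidase promoter measured by SteadyGlo luminescence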
# Chain of Paired box protein Pax-8 (Q06710 whole entry): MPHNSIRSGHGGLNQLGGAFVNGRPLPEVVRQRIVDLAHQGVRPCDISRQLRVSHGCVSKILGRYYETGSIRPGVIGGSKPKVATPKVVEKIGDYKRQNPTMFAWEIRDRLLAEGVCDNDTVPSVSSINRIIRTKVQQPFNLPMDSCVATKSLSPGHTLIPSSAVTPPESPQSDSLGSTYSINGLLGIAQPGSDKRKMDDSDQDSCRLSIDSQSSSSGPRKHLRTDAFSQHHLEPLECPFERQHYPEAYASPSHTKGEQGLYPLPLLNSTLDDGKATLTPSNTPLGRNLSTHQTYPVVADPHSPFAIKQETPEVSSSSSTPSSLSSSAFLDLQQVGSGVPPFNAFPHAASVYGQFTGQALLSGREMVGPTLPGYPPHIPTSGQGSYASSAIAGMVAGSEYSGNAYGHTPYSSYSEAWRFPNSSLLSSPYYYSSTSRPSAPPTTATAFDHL
# INS1 = test: INS-1E survival protection against cytokine death – cell-based, luminescence, retest, dose response (AID 449756); type: functional; settings: Rattus norvegicus;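 note: cell death triggered by IL-1 beta plus TNF-alpha plus IFN-gamma mixture; protective hits raise ATP signal compared with cytokine alone wells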
# [9] = DRD fibroblast viability loss – cell-based, non-viral oncogenic, luminescence, dose response (AID 1934); type: functional; settings: Homo sapiens
# BJ [10] = test: growth inhibition of engineered Ras-driven BJ cells – cell-based, alamar blue fluorescence, cherrypicked samples, dose response (AID 2631); type: functional; settings: Homo sapiens;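 note: confirmatory dose-response assay in RAS-dependent BJ fibroblasts engineered with TERT, LT and ST, with cytotoxicity read by fluorescence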
# BJ [11] = test: BJ-TERT fibroblast viability loss – cell-based, RAS-independent, luminescence, dose response (AID 1933); type: functional; settings: Homo sapiens
# BJ [12] = test: BJ-TERT-LT-ST fibroblast viability loss – cell-based, RAS-independent, luminescence, dose response (AID 1935); type: functional; settings: Homo sapiens;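 note: BJ fibroblasts immortalized with TERT plus LT and ST oncogenes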
# [13] = viability loss of HPDE-C7K cells – cell-based, fluorescence, HTS, primary screen (AID 431); type: functional; settings: Homo sapiens
# [14] = HPDE-C7 pancreatic duct cell viability loss – fluorescence, HTS (AID 430); type: functional, cell-based; settings: Homo sapiens
# cells = type: functional
# [15] = target: T4, Heat shock factor protein 1 (Mus musculus, UniProt P38532); test: decrease of HSF1-responsive luciferase luminescence – cell-based, NIH3T3, dose retest, confirmation (AID 2382); type: functional;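 note: NIH3T3 fibroblasts with HSF1-driven luciferase reporter stressed by proteasome inhibitor MG132; luminescence from HSF1-driven luciferase expression after 8 hours of MG132 stress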
# T4 sequence (P38532 whole entry): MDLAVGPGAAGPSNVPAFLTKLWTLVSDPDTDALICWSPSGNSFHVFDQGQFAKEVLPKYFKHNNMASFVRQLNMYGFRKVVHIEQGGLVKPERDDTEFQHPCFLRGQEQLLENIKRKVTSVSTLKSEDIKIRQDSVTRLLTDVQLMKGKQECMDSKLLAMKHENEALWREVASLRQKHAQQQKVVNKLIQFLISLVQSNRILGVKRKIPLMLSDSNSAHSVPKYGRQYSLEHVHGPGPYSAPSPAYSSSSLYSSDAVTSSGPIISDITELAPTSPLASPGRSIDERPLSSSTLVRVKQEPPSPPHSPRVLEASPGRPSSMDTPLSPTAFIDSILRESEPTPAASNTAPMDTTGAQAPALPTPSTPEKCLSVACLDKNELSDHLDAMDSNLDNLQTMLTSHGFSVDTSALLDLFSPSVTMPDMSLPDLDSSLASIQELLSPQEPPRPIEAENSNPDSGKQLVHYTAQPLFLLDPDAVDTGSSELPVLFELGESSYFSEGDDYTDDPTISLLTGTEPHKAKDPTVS
# HEK293 = test: EBV LMP1 TES2 canonical NF-kB signalling blockers – cell-based, HEK293, luciferase, cherry-pick, dose response (AID 588343); type: functional; settings: Homo sapiens
# [16] = blockers of bursicon-stimulated LGR2 cAMP reporter – cell-based, HEK293, CRE-luciferase reporter, cherry pick, set 2, dose response (AID 743343); type: functional;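 note: transfected cells were stimulated with diluted bursicon conditioned medium after compound addition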
# [17] = blockade of melanocortin 4 receptor signaling – cell-based, plate reader, cherry pick, counter-screen for LGR2 antagonist project, dose response (AID 743444); type: functional;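 note: transfected HEK 293 cells stimulated with alpha-MSH peptide; potency of inhibitors of the alpha-MSH evoked signal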
# [18] = A Cell Based Secondary Assay To Explore Cytotoxicity of Compounds that Sensitize Mycobacterium Tuberculosis to Beta-Lactam Antibiotics.; type: functional
structure (smiles),measurement,setting,value
COc1cccc(CN2CCN(C(=O)COc3ccc4ccccc4c3)CC2)c1,EC50,[1],> 112 µM (not active)
same,EC50,[2],> 112 µM (not active)
same,IC50,Beta-galactosidase,> 80 µM (inactive)
O=C1C(Cl)=C(Cl)C(=O)N1c1ccccc1Cl,IC50,Bcl-2-related protein A1 [3],10.2 µM (active)
same,IC50,Bcl-2-related protein A1 [4],3.64 µM (active)
same,IC50,[5],> 100 µM (not active)
O=C1C(Cl)=C(N2CCN(c3ccc(Cl)c(Cl)c3)CC2)C(=O)N1c1ccc(Cl)c(Cl)c1,IC50,Bcl-2-related protein A1 [3],> 100 µM (not active)
same,IC50,Bcl-2-related protein A1 [4],65.5 µM (active)
same,IC50,[5],> 100 µM (not active)
CSC1=C(C#N)C(c2ccccc2Cl)C2=C(O)c3ccccc3C2=N1 (centres undefined),AC50,Cytochrome P450 3A4,inconclusive
O=C(/C=C/c1ccccc1)N1CCN(Cc2nc(O)c3ccccc3n2)CC1,AC50,Cytochrome P450 1A2,31.6 µM (inconclusive)
same,IC50,Beta-galactosidase,> 80 µM (inactive)
CCCCc1c(C)nc2ccc(Br)cc2c1SCCC#N,IC50,Prothrombin,> 50 µM (not active)
same,CC50,[6],16.3 µM (active)
Oc1c(CN2CCOCC2)ccc2ccccc12,IC50,[7],> 50 µM (not active)
FC(F)(F)c1nnc2c(Sc3ccccc3)nc3ccc(Cl)cc3n12,AC50,Cytochrome P450 2C9,8.91 µM (inconclusive)
same,EC50,BJ [8],23.4 µM (active)
same,AC50,Paired box protein Pax-8,1.52 µM (active)
same,AC50,Cytochrome P450 3A4,inconclusive
same,AC50,INS1,7.41 µM (active)
same,EC50,[9],4.19 µM (active)
same,EC50,BJ [10],0.599 µM (active)
same,EC50,BJ [11],1.8 µM (inconclusive)
same,EC50,BJ [12],3.65 µM (active)
CC(C)(C)c1cc(CN2CCCC(O)C2)c(O)c(C(C)(C)C)c1 (centres undefined),EC50,[13],14.9 µM (active)
same,EC50,[14],15.5 µM (active)
Cc1cccc(NCCC(=O)c2ccc([N+](=O)[O-])cc2)c1C,IC50,[7],> 50 µM (not active)
same,IC50,cells,18 µM (active)
Cc1cc(NC(=O)CCNS(=O)(=O)c2cc(Br)cnc2N)ccc1Br,CC50,[6],> 40 µM (active)
O=C(O)c1cccc(Nc2ccnc(Nc3cccc(C(=O)O)c3)n2)c1,EC50,[15],0.281 µM (active)
same,AC50,HEK293,3.56 µM (active)
same,AC50,[16],2.9 µM (active)
same,AC50,[17],2.56 µM (active)
COc1ccc(-n2cc(-c3ccccc3)c3c(NN4CCOCC4)ncnc32)cc1,CC50,[18],> 40 µM (active)
